Source: patent US20220298138A1, “ENZYME INHIBITORS” (KALVISTA PHARMACEUTICALS LIMITED, priority 2019, published 2022)

biological target: T1, Human Factor XIIa (Homo sapiens, UniProt P00748); assay: Factor XIIa inhibitory activity in vitro (fluorogenic substrate H-DPro-Phe-Arg-AFC); type: biochemical; settings: 25° C., class symbols, read-out: Human FXIIa IC50
T1 construct: purchased Enzyme Research Laboratories
T1 sequence (P00748 373-615 limits assumed): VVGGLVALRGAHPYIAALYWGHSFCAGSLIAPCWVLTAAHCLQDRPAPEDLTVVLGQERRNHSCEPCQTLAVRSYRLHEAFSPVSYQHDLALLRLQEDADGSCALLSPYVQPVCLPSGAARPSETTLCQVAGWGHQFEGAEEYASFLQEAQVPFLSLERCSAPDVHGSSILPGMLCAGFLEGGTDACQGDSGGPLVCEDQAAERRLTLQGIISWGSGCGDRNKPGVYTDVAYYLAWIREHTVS
Experimental: Determination of the % Inhibition for FXIIa
Human Factor XIIa (Enzyme Research Laboratories) was incubated at 25° C. with the fluorogenic substrate H-DPro-Phe-Arg-AFC and various concentrations of the test compound. Residual enzyme activity (initial rate of reaction) was determined by measuring the change in […] at 410 nm and the IC50 value for the test compound was determined.

Structure (SMILES)	IC50
Nc1nccc2cc(CNC(=O)[C@H](Cc3ccc(F)c(F)c3)NC(=O)CN3CCCCC3=O)ccc12 [Example 3.39]	10 to 40 µM
CN1CCN(CC(=O)N[C@@H](Cc2ccc(F)c(F)c2)C(=O)NCc2ccc3c(N)nccc3c2)CC1 [Example 3.40]	10 to 40 µM
Nc1nccc2cc(CNC(=O)[C@H](Cc3ccc(F)c(F)c3)NC(=O)CN3CCCC3)ccc12 [Example 3.41]	1 to 3 µM
CC1CCCC(C)N1CC(=O)N[C@@H](Cc1ccc(F)c(F)c1)C(=O)NCc1cnc2[nH]cc(Cl)c2c1 (stereo partly drawn) [Example 3.101]	1 to 3 µM
CC1CCCC(C)N1CC(=O)N[C@@H](Cc1ccc(F)c(F)c1)C(=O)NCc1ccnc(N)c1 (stereo partly drawn) [Example 3.102]	10 to 40 µM
C[C@@H]1CCC[C@H](C)N1CC(=O)N[C@@H](Cc1ccc(F)c(F)c1)C(=O)NCc1ccc2[nH]cnc2c1 [Example 3.103]	10 to 40 µM
C[C@@H]1CCC[C@H](C)N1CC(=O)N[C@@H](Cc1ccc(F)c(F)c1)C(=O)NCc1ccc2c(N)n[nH]c2c1 [Example 3.104, (2S)—N-[(3-amino-1H-indazol-6-yl)methyl]-3-(3,4-difluorophenyl)-2-{2-[(2R,6S)-2,6-dimethylpiperidin-1-yl]acetamido}propanamide]	10 to 40 µM
C[C@@H]1CCC[C@H](C)N1CC(=O)N[C@@H](Cc1ccc(F)c(F)c1)C(=O)NCc1ccc2c(N)noc2c1 [Example 3.105, (2S)—N-[(3-amino-1,2-benzoxazol-6-yl)methyl]-3-(3,4-difluorophenyl)-2-{2-[(2R,6S)-2,6-dimethylpiperidin-1-yl]acetamido}propanamide]	10 to 40 µM
CCC(C)[C@H](C(=O)N[C@@H](Cc1ccc(F)c(F)c1)C(=O)NCc1ccc2c(N)nccc2c1)N(C)C (stereo partly drawn) [Example 5.101]	3 to 10 µM
CC(C)N(C)[C@H](C)C(=O)N[C@@H](Cc1ccc(F)c(F)c1)C(=O)NCc1ccc2c(N)nccc2c1 [Example 5.102]	0.28 to 1 µM
CC(C(=O)N[C@@H](Cc1ccc(F)c(F)c1)C(=O)NCc1ccc2c(N)nccc2c1)N1CCCC1 (stereo partly drawn) [Example 5.103]	1 to 3 µM
C[C@@H](C(=O)N[C@@H](Cc1ccc(F)c(F)c1)C(=O)NCc1ccc2c(N)nccc2c1)N(C)C [Example 5.104]	10 to 40 µM
C[C@@H]1CCC[C@H](C)N1[C@H](C)C(=O)N[C@@H](Cc1ccc(F)c(F)c1)C(=O)NCc1ccc2c(N)nccc2c1 [Example 5.105]	0.28 to 1 µM
C[C@@H]1CCC[C@H](C)N1[C@@H](C)C(=O)N[C@@H](Cc1ccc(F)c(F)c1)C(=O)NCc1ccc2c(N)nccc2c1 [Example 5.106]	3 to 10 µM
CC(C)(C)OC(=O)N[C@H](CCc1ccccc1)C(=O)NCC(=O)NCc1ccc2c(N)nccc2c1 [Example 6.01]	10 to 40 µM
Nc1nccc2cc(CNC(=O)CNC(=O)[C@H](N)CCc3ccccc3)ccc12 [Example 6.02]	0.28 to 1 µM
CC(C)(C)OC(=O)N[C@H](CCc1ccccc1)C(=O)NC(C)(C)C(=O)NCc1ccc2c(N)nccc2c1 [Example 6.03]	10 to 40 µM
CC[C@H](NC(=O)[C@@H](CCc1ccccc1)NC(=O)OC(C)(C)C)C(=O)NCc1ccc2c(N)nccc2c1 [Example 6.04]	10 to 40 µM
CC[C@H](NC(=O)[C@H](N)CCc1ccccc1)C(=O)NCc1ccc2c(N)nccc2c1 [Example 6.05]	1 to 3 µM
CC(C)(NC(=O)[C@H](N)CCc1ccccc1)C(=O)NCc1ccc2c(N)nccc2c1 [Example 6.06]	0.28 to 1 µM
CC(C)N[C@H](CCc1ccccc1)C(=O)NCC(=O)NCc1ccc2c(N)nccc2c1 [Example 6.07]	0.28 to 1 µM
CN[C@H](CCc1ccccc1)C(=O)N[C@@H](Cc1ccccc1)C(=O)NCc1ccc2c(N)nccc2c1 [Example 6.08]	3 to 10 µM
C[C@H](NC(=O)[C@@H](CCc1ccccc1)NC(=O)c1ccccc1)C(=O)NCc1ccc2c(N)nccc2c1 [Example 6.26]	10 to 40 µM
CC(C)N[C@H](CCc1ccccc1)C(=O)N[C@@H](C)C(=O)NCc1ccnc(N)c1 [Example 9.09]	3 to 10 µM

Structure (SMILES)	IC50
CC(C)N[C@H](CCc1ccccc1)C(=O)N[C@@H](C)C(=O)NCc1ccc(CN)cc1 [Example 9.10]	3 to 10 µM
COc1ccc(CNC(=O)[C@H](C)NC(=O)[C@@H](CCc2ccccc2)NC(C)C)cc1Cl [Example 9.11]	10 to 40 µM
CC(C)N[C@H](CCc1ccccc1)C(=O)N[C@@H](C)C(=O)NCCc1ccnc(N)c1 [Example 9.12]	10 to 40 µM
C[C@H](NC(=O)[C@@H](CCc1ccccc1)NS(C)(=O)=O)C(=O)NCc1ccc2[nH]cc(Cl)c2c1 [Example 9.16]	10 to 40 µM
C[C@H](NC(=O)[C@@H](CCc1ccccc1)NC1CCOCC1)C(=O)NCc1ccc2[nH]cc(Cl)c2c1 [Example 9.17]	3 to 10 µM
C[C@H](NC(=O)[C@@H](CCc1ccccc1)NCC(C)(C)C)C(=O)NCc1ccc2[nH]cc(Cl)c2c1 [Example 9.18]	0.28 to 1 µM
CCOC(=O)c1cn(-c2ccc(OC)c(F)c2CNC(=O)[C@H](C)NC(=O)[C@@H](CCc2ccccc2)NC(C)C)nn1 [Example 9.19]	10 to 40 µM
CC(C)N[C@H](CCc1ccccc1)C(=O)N[C@@H](C)C(=O)NCC1CNc2ccc(Cl)cc2O1 (stereo partly drawn) [Example 9.20]	10 to 40 µM
C[C@H](NC(=O)[C@@H](CCc1ccccc1)NS(C)(=O)=O)C(=O)NCc1cnc2[nH]cc(Cl)c2c1 [Example 9.21]	10 to 40 µM
CC(NC(=O)[C@@H](CCc1ccccc1)NC1CCOCC1)C(=O)NCc1cnc2[nH]cc(Cl)c2c1 (stereo partly drawn) [Example 9.22]	10 to 40 µM
CC(C)N[C@H](CCc1ccccc1)C(=O)N[C@@H](C)C(=O)NCc1cc2c(Cl)cccc2s1 [Example 9.23]	10 to 40 µM
C[C@H](NC(=O)[C@@H](CCc1ccccc1)NCc1ccccc1)C(=O)NCc1ccc2[nH]cc(Cl)c2c1 [Example 9.25]	1 to 3 µM
C[C@H](NC(=O)[C@@H](CCc1ccccc1)NCC(C)(C)C)C(=O)NCc1cnc2[nH]cc(Cl)c2c1 [Example 9.26]	3 to 10 µM
N[C@H](CCCCN1CCOCC1)C(=O)N1CC[C@H]1C(=O)NCc1ccc2[nH]cc(Cl)c2c1 [Example 10.19]	3 to 10 µM
CC(C)N[C@H](CCCCN1CCOCC1)C(=O)N1CC[C@H]1C(=O)NCc1ccc2[nH]cc(Cl)c2c1 [Example 10.20]	0.28 to 1 µM
CC(C)N[C@H](CCc1ccccc1)C(=O)N[C@@H](Cc1ccc(F)c(F)c1)C(=O)NCc1ccc2c(N)nccc2c1 [Example 12.12]	3 to 10 µM
CC(C)(C)OC(=O)N[C@H](CCc1ccccc1)C(=O)N1CCC[C@H]1C(=O)NCc1ccc2c(N)nccc2c1 [Example 17.01]	3 to 10 µM
Nc1nccc2cc(CNC(=O)[C@@H]3CCCN3C(=O)[C@H](N)CCc3ccccc3)ccc12 [Example 17.02]	0.28 to 1 µM
Nc1nccc2cc(CNC(=O)[C@@H]3CCCCN3C(=O)[C@H](N)CCc3ccccc3)ccc12 [Example 17.03]	1 to 3 µM
Nc1nccc2cc(CNC(=O)[C@@H]3CCCN(C(=O)[C@H](N)CCc4ccccc4)C3)ccc12 [Example 17.04]	3 to 10 µM
CCC(C)[C@@H](N)C(=O)N[C@@H](Cc1cccc2ccccc12)C(=O)NCc1ccc2c(N)nccc2c1 (stereo partly drawn) [Example 18.101]	1 to 3 µM
Nc1nccc2cc(CNC(=O)CNC(=O)[C@@H](CCc3ccccc3)NS(=O)(=O)Cc3ccccc3)ccc12 [Example 18.102]	1 to 3 µM
CCC(C)[C@H](C(=O)NCC(=O)NCc1ccc2c(N)nccc2c1)N(C)C (stereo partly drawn) [Example 18.103]	10 to 40 µM
CN(C)[C@H](CCc1ccccc1)C(=O)NCC(=O)NCc1ccc2c(N)nccc2c1 [Example 18.104]	1 to 3 µM
